In PMC4504870 (EJNMMI Research, 2015):
Read-outs that look alike come from different tables or passages of the source. Marks after values point to notes of the source that are not given here.

Key:
[1] = cited from earlier work
[2] = cited from earlier work; remark: listed apart in the source
[3] = Radiation dose of i.v. ^68Ga-citrate estimated from ^67Ga-citrate data (literature); parameters: species or system human; conditions: converted from 0.052 rem/mCi assuming only gamma radiation
[4] = parameters: method as in PMID 4743583; conditions: i.v., estimated from ^67Ga-citrate data, uniform distribution of radioactivity assumed; cited from earlier work
[5] = 90 min after injection, 12 MBq i.v., anesthetized; cited from earlier work
[6] = ref Tang 2003, Pauleit 2003 [22], [23]

C[N+](C)([11CH3])CCO [^11C-Choline]
Human derived ED ([1]; ref Tolvanen 2010 [24]): 0.0044 mSv/MBq
Animal derived ED ([2]; ref Tolvanen 2010 [24]): 0.0028 mSv/MBq

N[C@@H](Cc1ccc(OCC[18F])cc1)C(=O)O [^18 F-FET, O-(2-[^18F]fluoroethyl)-L-tyrosine]
Human derived ED [1, 6]: 0.0165 mSv/MBq
Animal derived ED [2, 6]: 0.0186 mSv/MBq

carbon-11-methoxyprogabidic acid [^11C-MPGA]
Human derived ED ([1]; ref Santens 1998 [19]): 0.0053 mSv/MBq
Animal derived ED ([2]; ref Santens 1998 [19]): 0.0048 mSv/MBq

N[C@@H](Cc1cc(O)c(O)cc1[18F])C(=O)O [6-^18 F-Fluoro-L-Dopa]
Human derived ED ([1]; ref Harvey 1985, Brown 1998 [20], [21]): 0.0199 mSv/MBq
Animal derived ED ([2]; calculated with biological risk weight factors of ICRP 30, ref Harvey 1985, Brown 1998 [20], [21]): 0.0539^b mSv/MBq

O=C([O-])CC(O)(CC(=O)[O-])C(=O)[O-].[68Ga+3] [^68Ga-citrate]
Estimated absorbed dose for total body, converted [3]: 0.014 mSv/MBq
Estimated absorbed dose for total body [4]: 0.052 rads/mCi

[11CH3]Nc1ccc(-c2nc3ccc(O)cc3s2)cc1 [^11C-6-OH-BTA-1]
Human derived ED ([1]; ref Parsey 2005, Scheinin 2007 [17], [18]): 0.0045 mSv/MBq
Animal derived ED ([2]; males only, ref Parsey 2005, Scheinin 2007 [17], [18]): 0.0065^a mSv/MBq

[68Ga+3].[Cl-].[Cl-].[Cl-] [^68Ga-chloride]
SUV, blood [5]: 2.7 ± 0.3
SUV, liver [5]: 5.9 ± 3.3
SUV, lung [5]: 1.9 ± 0.8
SUV, muscle [5]: 0.2 ± 0.03
SUV, skin [5]: 0.5 ± 0.1
